Key:
Type in all cases: in vivo
[1] = system: Puccinia recondita tritici; assay: Leaf Rust of Wheat foliar spray test, inoculated one day after treatment; settings: wheat plants, read-out: Activity against Fungal Diseases PUCCRT (percent disease control); for pest or weed control at 200 ppm: applied to foliage at 200 ppm; for pest or weed control at 3 ppm: Tested at 3 ppm
Method: (§1) Fungicide activity data are the level (in percent) at which the given disease was controlled when the given compound was applied to the foliage of the plants at 200 ppm. In a few cases (noted in the table) the compound was applied to the plants at 25 ppm or 3 ppm. The plants were inoculated with the fungus one day after treatment. ***=80-100% control; **=50-79% control; *=0-49% control. […] The activity of the compounds as effective fungicides was determined by applying the compounds to plants and observing control of fungal disease. […] All plants were inoculated with spores of the fungus the day after treatment, then incubated in an environment conducive to disease development. Disease severity was evaluated 4 to 25 days (d) later, depending on the speed of disease development. The following experiments were performed in the laboratory to determine the fungicidal efficacy of the compounds of the invention. […] Each pot contained 3-8 seedlings. These plants were sprayed until wet with the formulated test compounds. On the following day, the leaves were inoculated with an aqueous spore suspension of Puccinia recondita tritici and the plants were kept in high humidity overnight to permit spores to germinate and infect the leaf. The plants were then transferred to a greenhouse until disease developed on untreated control plants. […] The effectiveness of the test compounds at controlling disease when sprayed on leaves was determined by assessing the severity of disease on treated plants, then converting the severity to percent control based on the level of disease on untreated, inoculated plants.

Pyricularia oryzae = assay: whole plant or invertebrate; settings: foliar, read-out: Activity against Fungal Diseases PYRIOR (percent disease control)
Septoria tritici = assay: Septoria Blotch of Wheat foliar spray test, inoculated one day after treatment; settings: Zymoseptoria tritici, wheat plants, read-out: Activity against Fungal Diseases SEPTTR (percent disease control); for pest or weed control at 25 ppm: Tested at 25 ppm; for pest or weed control at 200 ppm: applied to foliage at 200 ppm
Method: as §1, with “3-10” for “3-8”, “compound.” for “compounds.”, “Septoria” for “Puccinia recondita”, “(one day in a dark dew chamber followed by two days in a lighted dew chamber)” for “overnight”

Compound | pest or weed control at 200 ppm [1] | pest or weed control at 200 ppm (Pyricularia oryzae) | pest or weed control at 25 ppm (Septoria tritici) | pest or weed control at 3 ppm [1] | pest or weed control at 200 ppm (Septoria tritici)
COc1ccc(C(C)Nc2ncnc3scnc23)cc1 (stereo not shown) [Compound 1, [1-(4-Methoxyphenyl)-ethyl]-thiazolo[5,4-d]pyrimidin-7-yl-amine] | 80 to 100% | 80 to 100% |  |  | 
N#Cc1ccnc(Oc2ccc(CCNc3ncnc4scnc34)cc2)c1 [Compound 2, 2-{4-[2-(thiazolo[5,4-d]pyrimidin-7-ylamino)-ethyl]-phenoxy}-isonicotinonitrile] | 80 to 100% | 80 to 100% | 50 to 79% |  | 
Oc1ccc(CCNc2ncnc3scnc23)cc1 [Compound 3, 4-[2-(thiazolo[5,4-d]pyrimidin-7-ylamino)-ethyl]-phenol] | 0 to 49% | 0 to 49% | 0 to 49% |  | 
FC(F)(F)COc1ccc(CCNc2ncnc3scnc23)cn1 [Compound 4, thiazolo[5,4-d]pyrimidin-7-yl-{2-[6-(2,2,2-trifluoroethoxy)-pyridin-3-yl]-ethyl}-amine] | 80 to 100% | 80 to 100% | 0 to 49% |  | 
Fc1nc(F)c(F)c(Oc2ccc(CCNc3ncnc4scnc34)cc2)c1F [Compound 5, {2-[4-(2,3,5,6-tetrafluoropyridin-4-yloxy)-phenyl]-ethyl}-thiazolo[5,4-d]pyrimidin-7-ylamine] |  |  | 0 to 49% | 80 to 100% | 
CC(Cc1ccc(Oc2c(F)cnc(C(F)(F)F)c2F)cc1)Nc1ncnc2scnc12 (stereo not shown) [Compound 14, {2-[4-(3,5-Difluoro-2-trifluoromethylpyridin-4-yloxy)-phenyl]-1-methyl-ethyl}-thiazolo[5,4-d]pyrimidin-7-ylamine] |  |  | 80 to 100% | 0 to 49% | 
COc1cc(CCNc2ncnc3scnc23)ccc1Oc1cc(C(F)(F)F)ccn1 [Compound 17, {2-[3-methoxy-4-(4-trifluoromethylpyridin-2-yloxy)-phenyl]-ethyl}-thiazolo[5,4-d]pyrimidin-7-ylamine] |  |  | 80 to 100% | 80 to 100% | 
COc1ccc(CCNc2ncnc3scnc23)cc1C [Compound 19, [2-(4-methoxy-3-methylphenyl)-ethyl]-thiazolo[5,4-d]pyrimidin-7-ylamine] | 80 to 100% |  |  |  | 50 to 79%
Cc1cc(CCNc2ncnc3scnc23)ccc1O [Compound 20, 2-methyl-4-[2-(thiazolo[5,4-d]pyrimidin-7-ylamino)-ethyl]-phenol] | 0 to 49% |  |  |  | 0 to 49%
COc1cc(CCNc2ncnc3scnc23)ccc1Oc1cnccc1C(F)(F)F [Compound 29, {2-[3-methoxy-4-(4-trifluoromethylpyridin-3-yloxy)-phenyl]-ethyl}-thiazolo[5,4-d]pyrimidin-7-ylamine] |  |  | 50 to 79% | 80 to 100% | 
Cc1cc(CCN(c2nc(C(F)(F)F)c(Cl)s2)c2ncnc3scnc23)ccc1Oc1nc(C(F)(F)F)c(Cl)s1 [Compound 45, (5-chloro-4-trifluoromethylthiazol-2-yl)-{2-[4-(5-chloro-4-trifluoromethylthiazol-2-yloxy)-3-methylphenyl]-ethyl}-thiazolo[5,4-d]pyrimidin-7-ylamine] |  |  | 0 to 49% | 0 to 49% | 
Cc1cc(CCNc2ncnc3scnc23)ccc1Oc1ccncc1C(F)(F)F [Compound 47, {2-[3-methyl-4-(3-trifluoromethylpyridin-4-yloxy)-phenyl]-ethyl}-thiazolo[5,4-d]pyrimidin-7-ylamine] | 80 to 100% | 80 to 100% |  |  | 80 to 100%
COc1cc(CCNc2ncnc3scnc23)ccc1Oc1c(Cl)cnc(C(F)(F)F)c1Cl [Compound 48, {2-[4-(3,5-dichloro-2-trifluoromethylpyridin-4-yloxy)-3-methoxyphenyl]-ethyl}-thiazolo[5,4-d]pyrimidin-7-ylamine] | 80 to 100% | 80 to 100% |  |  | 80 to 100%
FC(F)(F)c1ccc(Oc2ccc(CCNc3ncnc4scnc34)cc2)nc1 [Compound 50, thiazolo[5,4-d]pyrimidin-7-yl-{2-[4-(5-trifluoromethylpyridin-2-yloxy)-phenyl]-ethyl}-amine] |  |  | 80 to 100% | 80 to 100% | 
COc1cc(CCNc2ncnc3scnc23)ccc1Oc1ccc(C(F)(F)F)cn1 [Compound 51, {2-[3-methoxy-4-(5-trifluoromethylpyridin-2-yloxy)-phenyl]-ethyl}-thiazolo[5,4-d]pyrimidin-7-ylamine] |  |  | 80 to 100% | 80 to 100% | 
COc1cc(CCNc2ncnc3scnc23)ccc1Oc1cc(C(F)(F)F)ncn1 [Compound 54, {2-[3-methoxy-4-(6-trifluoromethylpyrimidin-4-yloxy)-phenyl]-ethyl}-thiazolo[5,4-d]pyrimidin-7-ylamine] | 80 to 100% |  |  |  | 80 to 100%
COc1ccc(CCNc2ncnc3scnc23)c(F)c1 [Compound 55, [2-(2-fluoro-4-methoxyphenyl)-ethyl]-thiazolo[5,4-d]pyrimidin-7-ylamine] | 80 to 100% |  |  |  | 0 to 49%
COc1ccc(CCNc2ncnc3scnc23)c(C)c1 [Compound 56, [2-(4-methoxy-2-methylphenyl)-ethyl]-thiazolo[5,4-d]pyrimidin-7-ylamine] | 0 to 49% |  |  |  | 50 to 79%
Cc1cc(O)ccc1CCNc1ncnc2scnc12 [Compound 57, 3-methyl-4-[2-(thiazolo[5,4-d]pyrimidin-7-ylamino)-ethyl]-phenol] | 0 to 49% |  |  |  | 0 to 49%
Oc1ccc(CCNc2ncnc3scnc23)c(F)c1 [Compound 58, 3-fluoro-4-[2-(thiazolo[5,4-d]pyrimidin-7-ylamino)-ethyl]phenol] | 0 to 49% |  |  |  | 0 to 49%
Fc1cc(Oc2cc(C(F)(F)F)ccn2)ccc1CCNc1ncnc2scnc12 [Compound 60, {2-[2-fluoro-4-(4-trifluoromethylpyridin-2-yloxy)-phenyl]-ethyl}-thiazolo[5,4-d]pyrimidin-7-ylamine] | 80 to 100% |  |  |  | 80 to 100%
Fc1cc(Oc2cc(C(F)(F)F)ncn2)ccc1CCNc1ncnc2scnc12 [Compound 63, {2-[2-fluoro-4-(6-trifluoromethylpyrimidin-4-yloxy)-phenyl]-ethyl}-thiazolo[5,4-d]pyrimidin-7-ylamine] | 80 to 100% |  |  |  | 80 to 100%

Reference: US8921382B2, “Thiazolo[5,4-d] pyrimidines and their use as agrochemicals” (Dow AgroSciences, LLC., priority 2010, dated 2014)
